Assay results: US20070232563A1, “Method for Enhancing Biological Activity and/or Expanding Suitable Region for Biological Activity of Living Body Contacting with Aqueous Environment” (Kabushiki Kaisha Hayashibara Seibutsu Kagaku Kenky, priority 2004, published 2007)

How the values were obtained:
Assay type in all cases: in vivo
[1] = tested on: colbicula (Corbicula leana); test: Biological activity of corbicula (aqueduct extension score) in aqueous mineral solutions
unpolished rice = test: Germination of unpolished rice in aqueous mineral solution
Description: Suitable mineral range of aqueous mineral solutions containing saccharides was examined by using unpolished rice as an agricultural product. In detail, a commercialized purified salt as a mineral was dissolved in tap water to give a final concentration of 0.5, 1.0, 1.5, or 2.0 as described in the following Table 6. α,α-Trehalose or α-maltosyl α,α-trehalose was dissolved in the resulting solutions to give a final concentration of 1 w/v %, on a dry solid basis. Absorbent cotton was allowed to absorb the resulting solution in an appropriate amount and placed in a plastic laboratory dish with a cover. Commercialized unpolished rice grains were placed on the cotton in the dish by 20 grains per group and kept at ambient temperature (25° C.) under a light-shaded condition by covering with a black cloth. As controls, an aqueous mineral solution without saccharides, and water without saccharides and minerals were prepared. […] Effective concentration of α,α-trehalose or α-maltosyl α,α-trehalose on expanding suitable region for biological activity of unpolished rice grains were determined by examining the number of germinated unpolished rice grains and germination time as an index in accordance with the method in Experiment 6 in the aqueous mineral solution with mineral concentration of 1.5 w/v %, where α,α-trehalose or α-maltosyl α,α-trehalose was effective in Experiment 6, containing α,α-trehalose or α-maltosyl α,α-trehalose in a concentration of 0.01, 0.1, 1, 2, 3, 4 or 6 w/v %, on a dry solid basis. As a control, water without saccharides or minerals was used.

alfalfa = test: Cultivation of sprout food (alfalfa) in aqueous mineral solution: stem extension, flavor and taste panel; settings: aerial part (stem) height vs water control; each ingredient 1 (w/v)%; three days, 18° C.
Description: Absorbent cotton was allowed to absorb aqueous solution containing on a dry solid basis 1 w/v % of mineral (sodium chloride) and 1 w/v % of α,α-trehalose or α-maltosyl α,α-trehalose and placed in a transparent container. One hundred per group commercialized alfalfa seeds were placed in the container. As references, waters containing either of mineral, α,α-trehalose or α-maltosyl α,α-trehalose were used. As a control, water was used. After covered with a transparent lid, the container was placed in a room under a borrowed light at 18° C. for three days to cultivate alfalfa. The grown alfalfa plants were measured to calculate average value of aerial part (stem) height. Relative extension rate was calculated in such a manner of comparing the average value of each sample with that of control. In addition, 20 panels were judged in view of flavor and taste in such a manner of comparing each sample with control cultivated in water.

OC[C@H]1O[C@H](O[C@H]2O[C@H](CO)[C@@H](O[C@H]3O[C@H](CO)[C@@H](O[C@H]4O[C@H](CO)[C@@H](O)[C@H](O)[C@H]4O)[C@H](O)[C@H]3O)[C@H](O)[C@H]2O)[C@H](O)[C@@H](O)[C@@H]1O [α-Maltosyl α,α-trehalose, α-maltosyl α,α-trehalose]
Judgment score of biological activity ([1]; Experiment 5, mineral 1.5 w/v %, saccharide 0.01 w/v %): 19
Judgment score of biological activity ([1]; Experiment 5, mineral 1.5 w/v %, saccharide 0.1 w/v %): 35
Judgment score of biological activity ([1]; Experiment 5, mineral 1.5 w/v %, saccharide 1 w/v %): 45
Judgment score of biological activity ([1]; Experiment 5, mineral 1.5 w/v %, saccharide 2 w/v %): 41
Judgment score of biological activity ([1]; Experiment 5, mineral 1.5 w/v %, saccharide 3 w/v %): 34
Judgment score of biological activity ([1]; Experiment 5, mineral 1.5 w/v %, saccharide 4 w/v %): 21
Judgment score of biological activity ([1]; mineral concentration 0, saccharide 1 w/v %, total of 18 shellfishes, 16 h): 54
Judgment score of biological activity ([1]; mineral concentration 0.5, saccharide 1 w/v %, total of 18 shellfishes, 16 h): 53
Judgment score of biological activity ([1]; mineral concentration 1.0, saccharide 1 w/v %, total of 18 shellfishes, 16 h): 45
Judgment score of biological activity ([1]; mineral concentration 1.5, saccharide 1 w/v %, total of 18 shellfishes, 16 h): 44
Judgment score of biological activity ([1]; mineral concentration 2.0, saccharide 1 w/v %, total of 18 shellfishes, 16 h): 37
Judgment score of biological activity ([1]; mineral concentration 2.5, saccharide 1 w/v %, total of 18 shellfishes, 16 h): 24
Judgment score of biological activity ([1]; mineral concentration 3.0, saccharide 1 w/v %, total of 18 shellfishes, 16 h): 4
Germinated grains (Number) (unpolished rice; Experiment 7, mineral 1.5 w/v %, saccharide 0.01 w/v %, 48 hours): 0
Germinated grains (Number) (unpolished rice; Experiment 7, mineral 1.5 w/v %, saccharide 0.01 w/v %, 72 hours): 2
Germinated grains (Number) (unpolished rice; Experiment 7, mineral 1.5 w/v %, saccharide 0.01 w/v %, 96 hours): 2
Germinated grains (Number) (unpolished rice; Experiment 7, mineral 1.5 w/v %, saccharide 0.01 w/v %, 120 hours): 2
Germinated grains (Number) (unpolished rice; Experiment 7, mineral 1.5 w/v %, saccharide 0.1 w/v %, 48 hours): 0
Germinated grains (Number) (unpolished rice; Experiment 7, mineral 1.5 w/v %, saccharide 0.1 w/v %, 72 hours): 2
Germinated grains (Number) (unpolished rice; Experiment 7, mineral 1.5 w/v %, saccharide 0.1 w/v %, 96 hours): 4
Germinated grains (Number) (unpolished rice; Experiment 7, mineral 1.5 w/v %, saccharide 0.1 w/v %, 120 hours): 5
Germinated grains (Number) (unpolished rice; Experiment 7, mineral 1.5 w/v %, saccharide 1 w/v %, 48 hours): 1
Germinated grains (Number) (unpolished rice; Experiment 7, mineral 1.5 w/v %, saccharide 1 w/v %, 72 hours): 3
Germinated grains (Number) (unpolished rice; Experiment 7, mineral 1.5 w/v %, saccharide 1 w/v %, 96 hours): 5
Germinated grains (Number) (unpolished rice; Experiment 7, mineral 1.5 w/v %, saccharide 1 w/v %, 120 hours): 5
Germinated grains (Number) (unpolished rice; Experiment 7, mineral 1.5 w/v %, saccharide 2 w/v %, 48 hours): 1
Germinated grains (Number) (unpolished rice; Experiment 7, mineral 1.5 w/v %, saccharide 2 w/v %, 72 hours): 6
Germinated grains (Number) (unpolished rice; Experiment 7, mineral 1.5 w/v %, saccharide 2 w/v %, 96 hours): 6
Germinated grains (Number) (unpolished rice; Experiment 7, mineral 1.5 w/v %, saccharide 2 w/v %, 120 hours): 6
Germinated grains (Number) (unpolished rice; Experiment 7, mineral 1.5 w/v %, saccharide 3 w/v %, 48 hours): 1
Germinated grains (Number) (unpolished rice; Experiment 7, mineral 1.5 w/v %, saccharide 3 w/v %, 72 hours): 4
Germinated grains (Number) (unpolished rice; Experiment 7, mineral 1.5 w/v %, saccharide 3 w/v %, 96 hours): 5
Germinated grains (Number) (unpolished rice; Experiment 7, mineral 1.5 w/v %, saccharide 3 w/v %, 120 hours): 5
Germinated grains (Number) (unpolished rice; Experiment 7, mineral 1.5 w/v %, saccharide 4 w/v %, 48 hours): 0
Germinated grains (Number) (unpolished rice; Experiment 7, mineral 1.5 w/v %, saccharide 4 w/v %, 72 hours): 3
Germinated grains (Number) (unpolished rice; Experiment 7, mineral 1.5 w/v %, saccharide 4 w/v %, 96 hours): 3
Germinated grains (Number) (unpolished rice; Experiment 7, mineral 1.5 w/v %, saccharide 4 w/v %, 120 hours): 3
Germinated grains (Number) (unpolished rice; Experiment 7, mineral 1.5 w/v %, saccharide 6 w/v %, 48 hours): 0
Germinated grains (Number) (unpolished rice; Experiment 7, mineral 1.5 w/v %, saccharide 6 w/v %, 72 hours): 0
Germinated grains (Number) (unpolished rice; Experiment 7, mineral 1.5 w/v %, saccharide 6 w/v %, 96 hours): 1
Germinated grains (Number) (unpolished rice; Experiment 7, mineral 1.5 w/v %, saccharide 6 w/v %, 120 hours): 1
Germinated grains (Number) (unpolished rice; mineral 0.5 w/v %, saccharide 1 w/v %, 24 hours, 20 grains): 0
Germinated grains (Number) (unpolished rice; mineral 0.5 w/v %, saccharide 1 w/v %, 48 hours, 20 grains): 15
Germinated grains (Number) (unpolished rice; mineral 0.5 w/v %, saccharide 1 w/v %, 72 hours, 20 grains): 19
Germinated grains (Number) (unpolished rice; mineral 0.5 w/v %, saccharide 1 w/v %, 96 hours, 20 grains): 20
Germinated grains (Number) (unpolished rice; mineral 0.5 w/v %, saccharide 1 w/v %, 120 hours, 20 grains): 20
Germinated grains (Number) (unpolished rice; mineral 1.0 w/v %, saccharide 1 w/v %, 24 hours, 20 grains): 0
Germinated grains (Number) (unpolished rice; mineral 1.0 w/v %, saccharide 1 w/v %, 48 hours, 20 grains): 3
Germinated grains (Number) (unpolished rice; mineral 1.0 w/v %, saccharide 1 w/v %, 72 hours, 20 grains): 10
Germinated grains (Number) (unpolished rice; mineral 1.0 w/v %, saccharide 1 w/v %, 96 hours, 20 grains): 16
Germinated grains (Number) (unpolished rice; mineral 1.0 w/v %, saccharide 1 w/v %, 120 hours, 20 grains): 16
Germinated grains (Number) (unpolished rice; mineral 1.5 w/v %, saccharide 1 w/v %, 24 hours, 20 grains): 0
Germinated grains (Number) (unpolished rice; mineral 1.5 w/v %, saccharide 1 w/v %, 48 hours, 20 grains): 1
Germinated grains (Number) (unpolished rice; mineral 1.5 w/v %, saccharide 1 w/v %, 72 hours, 20 grains): 3
Germinated grains (Number) (unpolished rice; mineral 1.5 w/v %, saccharide 1 w/v %, 96 hours, 20 grains): 5
Germinated grains (Number) (unpolished rice; mineral 1.5 w/v %, saccharide 1 w/v %, 120 hours, 20 grains): 5
Germinated grains (Number) (unpolished rice; mineral 2.0 w/v %, saccharide 1 w/v %, 24 hours, 20 grains): 0
Germinated grains (Number) (unpolished rice; mineral 2.0 w/v %, saccharide 1 w/v %, 48 hours, 20 grains): 0
Germinated grains (Number) (unpolished rice; mineral 2.0 w/v %, saccharide 1 w/v %, 72 hours, 20 grains): 0
Germinated grains (Number) (unpolished rice; mineral 2.0 w/v %, saccharide 1 w/v %, 96 hours, 20 grains): 0
Germinated grains (Number) (unpolished rice; mineral 2.0 w/v %, saccharide 1 w/v %, 120 hours, 20 grains): 0
Relative extension (%) (alfalfa): 105%
